Values of other authors in patent US20010006673A1, “LUTEIN- CONTAINING SUPPLEMENT AND PROCESS FOR ENHANCING IMMUNE RESPONSE IN ANIMALS” (priority 1998, published 2001).

How the values were obtained:
human neuroblastoma cell = settings: cited from earlier work
[1] = system: chemical-induced carcinogenesis; settings: mice; cited from earlier work
lymphocyte = settings: rats; cited from earlier work
[2] = system: tumor necrosis factor (TNF); settings: hamsters; cited from earlier work
mouse splenocytes = settings: cited from earlier work
Splenocytes = settings: splenocytes from mice injected peritoneally; cited from earlier work

CC1=CCCC(C)(C)C1/C=C/C(C)=C/C=C/C(C)=C/C=C/C=C(C)/C=C/C=C(C)/C=C/C1=C(C)CCCC1(C)C (stereo not drawn) [α-carotene]
Human neuroblastoma cell proliferation (human neuroblastoma cell): inhibit

CC1=C(/C=C/C(C)=C/C=C/C(C)=C/C=C/C=C(C)/C=C/C=C(C)/C=C/C2=C(C)C(=O)CCC2(C)C)C(C)(C)CCC1=O [canthaxanthin]
Chemical-induced carcinogenesis [1]: prevent | Lymphocyte proliferation (lymphocyte): increase | Production of tumor necrosis factor (TNF) by macrophages [2]: enhance

CC1=C(/C=C/C(C)=C/C=C/C(C)=C/C=C/C=C(C)/C=C/C=C(C)/C=C/C2=C(C)CCCC2(C)C)C(C)(C)CCC1 [β-carotene]
Ex vivo antibody response to T-dependent antigens (mouse splenocytes): increase | Antibody response to T-dependent antigens (Splenocytes): enhanced

CC1=C(/C=C/C(C)=C/C=C/C(C)=C/C=C/C=C(C)/C=C/C=C(C)/C=C/C2=C(C)C(=O)[C@@H](O)CC2(C)C)C(C)(C)C[C@H](O)C1=O [astaxanthin]
Ex vivo antibody response to T-dependent antigens (mouse splenocytes): increase | Antibody response to T-dependent antigens (Splenocytes): enhanced
